Values quoted from earlier work, collected in PubChem BioAssay AID1259409 (Chemical Carcinogenesis Research Information System (CCRIS), 2018).

Tested on: rodent chemically induced tumor inhibition, incidence and multiplicity
Experiment: CCRIS tumor inhibitor studies
Details: for tumour outcome (control, treated, inhibition, significance): Promoter: NONE USED

With S=C=NCc1ccccc1 as the compound, how does the “tumour outcome (control, treated, inhibition, significance)” value (Carcinogen: 7,12-DIMETHYLBENZ[A]ANTHRACENE, 57-97-6, Dose [Inhibitor]: 50 MG ONCE 4 HR BEFORE DMBA TREATMENT (STUDY DURATION: 18 WK), Route [Inhibitor]: INTRAGASTRIC, Species: RAT, Strain/Sex: SPRAGUE-DAWLEY/FEMALE, Target Tissue: Type of Lesion: MAMMARY GLAND: TUMOR, Dose [Carcinogen]: 12 MG IN 1 ML OLIVE OIL AT AGE 7 WK 4 HR BEFORE AGENT TREATMENT) read?
The value was 100%, 14%, 86%, p<0.001.

What about the “tumour outcome (control, treated, inhibition, significance)” value (Carcinogen: 7,12-DIMETHYLBENZ[A]ANTHRACENE, 57-97-6, Dose [Inhibitor]: 50 MG ONCE 24 HR BEFORE DMBA TREATMENT (STUDY DURATION: 18 WK), Route [Inhibitor]: INTRAGASTRIC, Species: RAT, Strain/Sex: SPRAGUE-DAWLEY/FEMALE, Target Tissue: Type of Lesion: MAMMARY GLAND: TUMOR, Dose [Carcinogen]: 12 MG IN 1 ML OLIVE OIL AT AGE 7 WK 24 HR AFTER AGENT TREATMENT) of the same compound?
Its value is 93%, 71%, 24%, not significant.

What about the outcome (Carcinogen: BENZO[A]PYRENE, 50-32-8, Dose [Inhibitor]: 0, 5 UMOL IN ACETONE 4 HR PRIOR TO CARCINOGEN DOSE (STUDY DURATION: 20 WK), Route [Inhibitor]: DERMAL, Species: MOUSE, Strain/Sex: STRAIN-A/FEMALE, Target Tissue: Type of Lesion: SKIN: TUMOR, Dose [Carcinogen]: 0.1 UMOL IN ACETONE ONCE, Promoter: 12-O-TETRADECANOYLPHORBOL-13-ACETATE, 16561-29-8) of the same compound?
Its outcome is 70%, 60%, 14%, not significant at 15 wk; 95%, 75%, 21%, not significant at 20 wk.

What about the “tumour outcome (control, treated, inhibition, significance)” value (Carcinogen: BENZO[A]PYRENE, 50-32-8, Dose [Inhibitor]: 0, 6.7 UMOL IN COTTONSEED OIL 15 MIN PRIOR TO CARCINOGEN DOSES 1/2 WK FOR 3 TREATMENTS (STUDY DURATION: 26 WK), Route [Inhibitor]: GAVAGE, Species: MOUSE, Strain/Sex: STRAIN-A/FEMALE, Target Tissue: Type of Lesion: FORESTOMACH: TUMOR, Dose [Carcinogen]: 7.9 UMOL IN COTTONSEED OIL 1/2 WK FOR 3 TREATMENTS) of the same compound?
The value was 95%, 95%, 0%, not significant.

And the “tumour outcome (control, treated, inhibition, significance)” value (Carcinogen: BENZO[A]PYRENE, 50-32-8, Dose [Inhibitor]: 0, 6.7 UMOL IN COTTONSEED OIL 15 MIN PRIOR TO CARCINOGEN DOSES 1/2 WK FOR 3 TREATMENTS (STUDY DURATION: 26 WK), Route [Inhibitor]: GAVAGE, Species: MOUSE, Strain/Sex: STRAIN-A/FEMALE, Target Tissue: Type of Lesion: LUNG: TUMOR, Dose [Carcinogen]: 7.9 UMOL IN COTTONSEED OIL 1/2 WK FOR 3 TREATMENTS)?
Its value is 95%, 80%, 16%, not significant.

And the “tumour outcome (control, treated, inhibition, significance)” value (Carcinogen: BENZO[A]PYRENE, 50-32-8, Dose [Inhibitor]: 5 MG/G DIET AT AGE 9 WK SIMULTANEOUSLY WITH CARCINOGEN, 3/WK FOR 6 WK (STUDY DURATION: 20 WK), Route [Inhibitor]: ORAL, Species: MOUSE, Strain/Sex: ICR/FEMALE, Target Tissue: Type of Lesion: FORESTOMACH: TUMOR, Dose [Carcinogen]: 0.3 MG/G DIET AT AGE 9 WK, 3/WK FOR 6 WK)?
Its value is 41%, 0%, 100%, p<0.01.

What about the “tumour outcome (control, treated, inhibition, significance)” value (Carcinogen: DIETHYLNITROSAMINE, 55-18-5, Dose [Inhibitor]: 0, 100 PPM IN DIET FOR DURATION OF STUDY BEGINNING 1 WK PRIOR TO CARCINOGEN DOSE (STUDY DURATION: 53 WK), Route [Inhibitor]: ORAL, Species: RAT, Strain/Sex: ACI/MALE, Target Tissue: Type of Lesion: LIVER: HEPATOCELLULAR ADENOMA, Dose [Carcinogen]: 200 MG/KG BW ONCE) of the same compound?
The value was 10/18 (55%), 1/17 (6%), 89%, p<0.002.

And the “tumour outcome (control, treated, inhibition, significance)” value (Carcinogen: DIETHYLNITROSAMINE, 55-18-5, Dose [Inhibitor]: 0, 100 PPM IN DIET FOR DURATION OF STUDY BEGINNING 1 WK PRIOR TO CARCINOGEN DOSE (STUDY DURATION: 53 WK), Route [Inhibitor]: ORAL, Species: RAT, Strain/Sex: ACI/MALE, Target Tissue: Type of Lesion: LIVER: HEPATOCELLULAR CARCINOMA, Dose [Carcinogen]: 200 MG/KG BW ONCE)?
The value was 6/18 (33%), 0/17 (0%), 100%, p<0.02.

And the “tumour outcome (control, treated, inhibition, significance)” value (Carcinogen: METHYLAZOXYMETHANOL ACETATE, 592-62-1, Dose [Inhibitor]: 0, 400 PPM IN DIET FOR 4 WK BEGINNING 1 WK PRIOR TO CARCINOGEN TREATMENT (STUDY DURATION: 49 WK), Route [Inhibitor]: ORAL, Species: RAT, Strain/Sex: ACI/FEMALE, Target Tissue: Type of Lesion: COLON: ADENOMA OR CARCINOMA, Dose [Carcinogen]: 25 MG/KG BW 1/WK FOR 3 WK)?
The value was 15/18 (83%), 9/19 (47%), 43%, p<0.05.

And the “tumour outcome (control, treated, inhibition, significance)” value (Carcinogen: METHYLAZOXYMETHANOL ACETATE, 592-62-1, Dose [Inhibitor]: 0, 400 PPM IN DIET FOR 46 WK BEGINNING 1 WK POST CARCINOGEN TREATMENT (STUDY DURATION: 49 WK), Route [Inhibitor]: ORAL, Species: RAT, Strain/Sex: ACI/FEMALE, Target Tissue: Type of Lesion: COLON: ADENOMA OR CARCINOMA, Dose [Carcinogen]: 25 MG/KG BW 1/WK FOR 3 WK)?
Its value is 15/18 (83%), 17/19 (89%), -7%, not significant.

What about the “tumour outcome (control, treated, inhibition, significance)” value (Carcinogen: METHYLAZOXYMETHANOL ACETATE, 592-62-1, Dose [Inhibitor]: 0, 400 PPM IN DIET FOR 46 WK BEGINNING 1 WK POST CARCINOGEN TREATMENT (STUDY DURATION: 49 WK), Route [Inhibitor]: ORAL, Species: RAT, Strain/Sex: ACI/FEMALE, Target Tissue: Type of Lesion: SMALL INTESTINE: CARCINOMA, Dose [Carcinogen]: 25 MG/KG BW 1/WK FOR 3 WK) of the same compound?
Its value is 10/18 (56%), 10/19 (53%), 5%, not significant.

And the “tumour outcome (control, treated, inhibition, significance)” value (Carcinogen: N-BUTYL-N-(4-HYDROXYBUTYL)NITROSAMINE (3817-11-6), Dose [Inhibitor]: 0, 10 PPM IN THE DIET FOR 40 WK (STUDY DURATION: 40 WK), Route [Inhibitor]: ORAL, Species: RAT, Strain/Sex: F344/MALE, Target Tissue: Type of Lesion: URINARY BLADDER: CARCINOMA, Dose [Carcinogen]: 50 PPM IN DRINKING WATER FOR 40 WK)?
Its value is 19/20 (95%), 18/20 (90%), 5%, not significant.

And the “tumour outcome (control, treated, inhibition, significance)” value (Carcinogen: N-BUTYL-N-(4-HYDROXYBUTYL)NITROSAMINE (3817-11-6), Dose [Inhibitor]: 0, 10 PPM IN THE DIET FOR 40 WK (STUDY DURATION: 40 WK), Route [Inhibitor]: ORAL, Species: RAT, Strain/Sex: F344/MALE, Target Tissue: Type of Lesion: URINARY BLADDER: PAPILLOMA, Dose [Carcinogen]: 50 PPM IN DRINKING WATER FOR 40 WK)?
The value was 15/20 (75%), 11/20 (55%), 27%, not significant.

What about the “tumour outcome (control, treated, inhibition, significance)” value (Carcinogen: N-BUTYL-N-(4-HYDROXYBUTYL)NITROSAMINE (3817-11-6), Dose [Inhibitor]: 0, 100 PPM IN THE DIET FOR 40 WK (STUDY DURATION: 40 WK), Route [Inhibitor]: ORAL, Species: RAT, Strain/Sex: F344/MALE, Target Tissue: Type of Lesion: URINARY BLADDER: CARCINOMA, Dose [Carcinogen]: 50 PPM IN DRINKING WATER FOR 40 WK) of the same compound?
The value was 19/20 (95%), 15/20 (75%), 21%, not significant.

What about the “tumour outcome (control, treated, inhibition, significance)” value (Carcinogen: N-BUTYL-N-(4-HYDROXYBUTYL)NITROSAMINE (3817-11-6), Dose [Inhibitor]: 0, 100 PPM IN THE DIET FOR 40 WK (STUDY DURATION: 40 WK), Route [Inhibitor]: ORAL, Species: RAT, Strain/Sex: F344/MALE, Target Tissue: Type of Lesion: URINARY BLADDER: PAPILLOMA, Dose [Carcinogen]: 50 PPM IN DRINKING WATER FOR 40 WK) of the same compound?
The value was 15/20 (75%), 9/20 (45%), 40%, p< 0.05.

And the “tumour outcome (control, treated, inhibition, significance)” value (Carcinogen: N-BUTYL-N-(4-HYDROXYBUTYL)NITROSAMINE (3817-11-6), Dose [Inhibitor]: 0, 1000 PPM IN THE DIET FOR 40 WK (STUDY DURATION: 40 WK), Route [Inhibitor]: ORAL, Species: RAT, Strain/Sex: F344/MALE, Target Tissue: Type of Lesion: URINARY BLADDER: CARCINOMA, Dose [Carcinogen]: 50 PPM IN DRINKING WATER FOR 40 WK)?
Its value is 19/20 (95%), 5/20 (25%), 74%, p< 0.01.

What about the “tumour outcome (control, treated, inhibition, significance)” value (Carcinogen: N-BUTYL-N-(4-HYDROXYBUTYL)NITROSAMINE (3817-11-6), Dose [Inhibitor]: 0, 1000 PPM IN THE DIET FOR 40 WK (STUDY DURATION: 40 WK), Route [Inhibitor]: ORAL, Species: RAT, Strain/Sex: F344/MALE, Target Tissue: Type of Lesion: URINARY BLADDER: PAPILLOMA, Dose [Carcinogen]: 50 PPM IN DRINKING WATER FOR 40 WK) of the same compound?
The value was 15/20 (75%), 2/20 (10%), 87%, p< 0.01.

What about the “tumour outcome (control, treated, inhibition, significance)” value (Carcinogen: N-NITROSOMETHYLBENZYLAMINE, 937-40-6, Dose [Inhibitor]: 0, 0.4 UMOL/G IN DIET FOR 25 WK BEGINNING 2 WK PRIOR TO CARCINOGEN TREATMENT (STUDY DURATION: 25 WK), Route [Inhibitor]: ORAL, Species: RAT, Strain/Sex: F344/MALE, Target Tissue: Type of Lesion: ESOPHAGUS: TUMOR, Dose [Carcinogen]: 0.5 MG/KG BW IN 20% DMSO 1/WK FOR 15 WK) of the same compound?
The value was 100%, 100%, 0%, not significant.

And the “tumour outcome (control, treated, inhibition, significance)” value (Carcinogen: N-NITROSOMETHYLBENZYLAMINE, 937-40-6, Dose [Inhibitor]: 0, 1 UMOL/G IN DIET FOR 25 WK BEGINNING 2 WK PRIOR TO CARCINOGEN TREATMENT (STUDY DURATION: 25 WK), Route [Inhibitor]: ORAL, Species: RAT, Strain/Sex: F344/MALE, Target Tissue: Type of Lesion: ESOPHAGUS: TUMOR, Dose [Carcinogen]: 0.5 MG/KG BW IN 20% DMSO 1/WK FOR 15 WK)?
The value was 100%, 100%, 0%, not significant.

And the “tumour outcome (control, treated, inhibition, significance)” value (Carcinogen: N-NITROSOMETHYLBENZYLAMINE, 937-40-6, Dose [Inhibitor]: 0, 2.5 UMOL/G IN DIET FOR 25 WK BEGINNING 2 WK PRIOR TO CARCINOGEN TREATMENT (STUDY DURATION: 25 WK), Route [Inhibitor]: ORAL, Species: RAT, Strain/Sex: F344/MALE, Target Tissue: Type of Lesion: ESOPHAGUS: TUMOR, Dose [Carcinogen]: 0.5 MG/KG BW IN 20% DMSO 1/WK FOR 15 WK)?
Its value is 100%, 100%, 0%, not significant.
